Results on four compounds are retold here after ChEMBL document CHEMBL1687702, “Discovery of New Human A(2A) Adenosine Receptor Agonists: Design, Synthesis, and Binding Mode of Truncated 2-Hexynyl-4'-thioadenosine” (ACS Med Chem Lett, 2010).

Assay [1] deals with T1, Adenosine receptor A2a (Homo sapiens, UniProt P29274). Nature of the assay: Agonist activity at human adenosine A2A receptor expressed in CHO cells by cyclic AMP functional assay. It counts as cell-based.
Assay [2] has as its target T2, Adenosine receptor A3 (Homo sapiens) (UniProt P0DMS8).
T2 sequence (whole entry): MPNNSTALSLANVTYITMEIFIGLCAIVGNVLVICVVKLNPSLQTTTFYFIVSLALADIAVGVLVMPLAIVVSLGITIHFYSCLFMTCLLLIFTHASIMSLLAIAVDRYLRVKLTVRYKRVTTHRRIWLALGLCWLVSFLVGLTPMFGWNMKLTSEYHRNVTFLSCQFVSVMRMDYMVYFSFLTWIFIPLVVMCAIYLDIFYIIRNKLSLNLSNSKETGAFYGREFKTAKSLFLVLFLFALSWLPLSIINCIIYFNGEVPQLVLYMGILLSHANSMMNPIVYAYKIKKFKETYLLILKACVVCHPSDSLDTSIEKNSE
Nature of the assay: Antagonistic activity at human adenosine A3 receptor expressed in CHO cells assessed as inhibition of Cl-IB-MECA mediated cyclic AMP production by Schild assay. It counts as functional, cell-based.

Assay [3] has as its target T1, Adenosine receptor A2a. Put plainly: Displacement of [3H]CGS21680 from human adenosine A2A receptor in HEK293 cells at 10 uM. It counts as cell-based.
The target of assay [4] is T3, Adenosine receptor A2b (Homo sapiens, UniProt P29275).
T3 sequence (P29275 whole entry): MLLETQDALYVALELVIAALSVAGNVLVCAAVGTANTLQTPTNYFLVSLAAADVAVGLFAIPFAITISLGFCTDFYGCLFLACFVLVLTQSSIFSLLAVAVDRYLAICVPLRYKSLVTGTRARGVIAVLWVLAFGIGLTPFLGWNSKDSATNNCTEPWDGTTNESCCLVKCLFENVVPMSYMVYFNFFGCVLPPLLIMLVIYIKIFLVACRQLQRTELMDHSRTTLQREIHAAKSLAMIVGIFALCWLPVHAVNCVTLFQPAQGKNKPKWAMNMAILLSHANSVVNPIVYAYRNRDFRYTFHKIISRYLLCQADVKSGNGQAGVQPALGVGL
Put plainly: Agonist activity at human adenosine A2B receptor expressed in CHO cells by cyclic AMP functional assay. It is filed as cell-based.

For assay [5], the target named is T4, Adenosine receptor A1 (Homo sapiens) (UniProt P30542).
T4 sequence (whole entry): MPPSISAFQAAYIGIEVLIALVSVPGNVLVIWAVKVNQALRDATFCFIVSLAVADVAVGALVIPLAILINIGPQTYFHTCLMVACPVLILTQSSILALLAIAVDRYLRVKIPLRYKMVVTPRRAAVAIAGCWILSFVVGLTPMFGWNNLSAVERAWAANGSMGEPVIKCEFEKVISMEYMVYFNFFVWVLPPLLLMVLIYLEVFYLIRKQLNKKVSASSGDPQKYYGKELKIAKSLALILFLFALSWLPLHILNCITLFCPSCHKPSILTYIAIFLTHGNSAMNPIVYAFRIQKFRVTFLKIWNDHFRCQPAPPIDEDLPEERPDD
Nature of the assay: Displacement of [3H]CCPA from human adenosine A1 receptor expressed in CHO cells at 10 uM. It is filed as cell-based. (Displacement assays read how much labelled ligand stays bound in the presence of the test substance.)

Assay [6] deals with T1, Adenosine receptor A2a. Nature of the assay: Displacement of [3H]CGS21680 from human adenosine A2A receptor in HEK293 cells. It counts as cell-based.
The target of assay [7] is T5, Adenosine receptor A3 (Homo sapiens, UniProt P0DMS8).
T5 sequence (P0DMS8 whole entry): T2 sequence (whole entry)
Nature of the assay: Displacement of [125I]I-AB-MECA from human adenosine A3 receptor expressed in CHO cells […]. It counts as cell-based.

The EC50 is the concentration that produces a half-maximal response. By Kb is commonly meant the equilibrium dissociation constant of an antagonist, usually derived from a functional assay. In general, inhibition refers to the share of the control response that was lost under treatment. A higher inhibition goes with a response far below the control. By Ki is commonly meant the equilibrium dissociation constant of an inhibitor or competing ligand from its target. Read a low Ki as higher affinity.

T1 sequence (P29274 whole entry): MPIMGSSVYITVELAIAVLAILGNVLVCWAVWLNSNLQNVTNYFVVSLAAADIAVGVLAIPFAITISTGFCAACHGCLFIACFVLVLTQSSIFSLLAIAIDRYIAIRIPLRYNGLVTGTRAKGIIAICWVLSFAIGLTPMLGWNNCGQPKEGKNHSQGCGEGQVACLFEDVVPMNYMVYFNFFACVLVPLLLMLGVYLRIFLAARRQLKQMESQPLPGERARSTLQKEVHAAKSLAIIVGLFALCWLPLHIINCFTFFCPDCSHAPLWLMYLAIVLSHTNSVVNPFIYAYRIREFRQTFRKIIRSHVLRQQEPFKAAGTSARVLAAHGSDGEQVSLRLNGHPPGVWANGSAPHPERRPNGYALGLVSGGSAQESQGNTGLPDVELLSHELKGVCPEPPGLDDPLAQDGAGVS

For the compound `CCCCC#Cc1nc(N)c2ncn([C@@H]3SC[C@@H](O)[C@H]3O)c2n1`, the EC50 in assay [1] amounted to 12 nM; in assay [4] it was 10000 nM. The antagonist dissociation constant (Kb) in assay [2] stood at 1.69 nM. For the same compound, the inhibition in assay [3] was found to be 97.2%; in assay [5] it was 38.9%.

For `CCCC/C=C/c1nc(N)c2ncn([C@@H]3SC[C@@H](O)[C@H]3O)c2n1`, the figures for the Ki in assay [6] and in assay [7] were 72 nM and 13.2 nM, respectively. Besides, the inhibition was 95.9% in assay [3] and 16.2% in assay [5].

With `CCCCC#Cc1nc2c(N)ncnc2n1[C@@H]1SC[C@@H](O)[C@H]1O`, the inhibition in assay [3] amounted to 46.5%; in assay [5], 49.3%. In assay [7], this compound showed a Ki of 20 nM.

As to `CCCC/C=C/c1nc2c(N)ncnc2n1[C@@H]1SC[C@@H](O)[C@H]1O`, the inhibition in assay [3] worked out at 22.8%; in assay [5] it was 3.7%. Moreover, the Ki in assay [7] stood at 259 nM.
